Experimental data reported in patent publication US20220313728A1 (priority 2021, published 2022).
“Also recorded” adds a separate entry of the source.

Assays:
[1] = test system: patients with severe TRMD; assay: Same trial; Quick Inventory of Depressive Symptomology-Self Report (QIDS-SR); assay type: in vivo, human
Description: The trial was registered at clinicaltrials.gov (NCT03283670).
Patients were recruited from an existing database of TRMD patients identified through participation in a secondary referral clinic for TRMD at Washington University Department of Psychiatry, as well as from the “Volunteers for Health” patient pool (individuals with various medical/psychiatric conditions who volunteer to participate in clinical research) within Washington University School of Medicine. Inclusion criteria were a) adults 18-75 years of age; b) current diagnosis of unipolar major depressive disorder (MDD) without psychosis as confirmed by the Mini International Neuropsychiatric Interview; c) a score of ≥19 on the Montgomery-Asberg Depression Rating Scale (MADRS); d) documented lifetime failure to respond to ≥3 adequate dose/duration antidepressant treatment trials, including ≥1 antidepressant medication failure(s) in the current depressive episode; and e) good command of the English language. […] Patients were instructed to continue their current standard of care MDD treatment and to maintain a stable psychotropic medication dosage or psychotherapy regimen for 4 weeks prior to initiation of the study and throughout the study. […]

[2] = test system: patients with severe TRMD; assay: Phase 2 double-blind randomized placebo-controlled crossover trial, single 1-hour inhalation; Hamilton Depression Rating Scale (HDRS-21, primary outcome); assay type: in vivo, human; conditions: for Estimated difference between 25% and placebo (HDRS-21) / Estimated difference between 50% and placebo (HDRS-21): single 1-hour inhalation; for Difference vs placebo (HDRS-21): 2 weeks, following a single treatment; for Estimated difference between 50% and 25% (HDRS-21): 50% vs 25% nitrous oxide; for Patients in remission (HDRS ≤7 points) / Patients with treatment response (reduction in HDRS-21 points ≥50%): pre-treatment HDRS-21 >19; for Estimated difference between placebo and the combined 25% and 50% groups (HDRS-21): combined 25% and 50% nitrous oxide
Description: The study was a single-center, double-blind, randomized placebo-controlled crossover trial. All subjects underwent three one-hour inhalation sessions in random order, each separated by at least 4 weeks. The sessions included: placebo (0% N20), 25% N20, and 50% N20 balanced with air/oxygen. Blinding was executed by separating locations and teams for inhalation treatments and psychiatric evaluations. Only the anesthesia team administering the inhalation treatments was aware of study group assignment; all other participants, including patients and raters, were blinded. Likewise, the study setup was identical for all sessions, and gas flow meters were concealed, making inadvertent unblinding unlikely. The study was approved by the Washington University in St. Louis Institutional Review Board, and all patients provided written, informed consent. The trial was registered at clinicaltrials.gov (NCT03283670).
Patients were recruited from an existing database of TRMD patients identified through participation in a secondary referral clinic for TRMD at Washington University Department of Psychiatry, as well as from the “Volunteers for Health” patient pool (individuals with various medical/psychiatric conditions who volunteer to participate in clinical research) within Washington University School of Medicine. […] Patients were instructed to continue their current standard of care MDD treatment and to maintain a stable psychotropic medication dosage or psychotherapy regimen for 4 weeks prior to initiation of the study and throughout the study. Further, patients were instructed not to modify their antidepressant treatments during the three month course of the trial (i.e., discouraged from adding new antidepressants or modifying existing antidepressant dosages).
Following the in-person screen, each of the three treatment sessions consisted of […]: pre-inhalation mood assessment, inhalation, and post-inhalation follow-up sessions at 22-28 hours, 1 week, and 2 weeks. An additional assessment was completed 4 weeks following the final inhalation treatment.
All three inhalation sessions were scheduled for one hour. […] Except for the choice of inhalational gas admixture, treatment sessions were otherwise identical. The gas mix was administered via a standard anesthesia facemask through tubing connected to the anesthesia machine or an FDA-approved Porter/Praxair MXR breathing circuit. A small sample connector line was inserted into the facemask allowing the measurement of inhaled and exhaled gas concentrations. […] Patients were monitored during and after the treatment according to American Society of Anesthesiologists standards which include continuous 3-lead ECG, pulse oximetry, non-invasive blood pressure, and end tidal CO2 measurement under the supervision of an attending-level anesthesiologist. After the one-hour treatment session, patients were monitored in a recovery room for up to one hour at which time a study team physician determined whether the patient met criteria for discharge.
Data were collected at (a) baseline (prior to each inhalation session), (b) 2-hours, (c) 24 hours, (d) 1 week, and (e) 2 weeks after inhalation. Efficacy of the inhalation treatment on mood was measured using the following: Hamilton Depression Rating Scale 21-item (HDRS-21; primary outcome); Montgomery-Asberg Depression Rating Scale (MADRS); Quick Inventory of Depressive Symptomology-Self Report (QIDS-SR); and the Profile of Mood States 2nd Edition (POMS-2). Other behavioral assessments included an assessment of dissociation, the Clinical Administered Dissociative States Scale 28-item (CADSS-28); and an assessment for the emergence of psychosis, the Brief Psychiatric Rating Scale 18-item (BPRS-18). These mood and behavioral assessments were performed by a blinded member of the psychiatry study team. Additionally, adequacy of the blind was assessed by a Blinding Questionnaire given after completion of each inhalation session.

[3] = after 50% nitrous oxide, 5/12 patients

Structure (SMILES): [N-]=[N+]=O [nitrous oxide]
- Results on the QIDS scale ([1]; 25% nitrous oxide): non-significant; also recorded: not statistically significant
- Results on the QIDS scale ([1]; 50% nitrous oxide, except at 2 weeks): not statistically significant
- Estimated difference between 25% and placebo (HDRS-21) ([2]; 25% nitrous oxide, 2 hours): −0.75 points
- Estimated difference between 25% and placebo (HDRS-21) ([2]; 25% nitrous oxide, 24 hours): −1.41 points
- Estimated difference between 25% and placebo (HDRS-21) ([2]; 25% nitrous oxide, week 1): −4.35 points
- Estimated difference between 25% and placebo (HDRS-21) ([2]; 25% nitrous oxide, week 2): −5.19 points
- Difference vs placebo (HDRS-21) ([2]; 25% nitrous oxide): −5.19 units
- Effect size d, 25% vs placebo (HDRS-21) ([2]; 25% nitrous oxide, 2 hours): 0.16
- Effect size d, 25% vs placebo (HDRS-21) ([2]; 25% nitrous oxide, 24 hours): 0.21
- Effect size d, 25% vs placebo (HDRS-21) ([2]; 25% nitrous oxide, week 1): 0.38
- Effect size d, 25% vs placebo (HDRS-21) ([2]; 25% nitrous oxide, week 2): 0.62
- Estimated difference between 50% and placebo (HDRS-21) ([2]; 50% nitrous oxide, 2 hours): −0.87 points
- Estimated difference between 50% and placebo (HDRS-21) ([2]; 50% nitrous oxide, 24 hours): −1.93 points
- Estimated difference between 50% and placebo (HDRS-21) ([2]; 50% nitrous oxide, week 1): −2.44 points
- Estimated difference between 50% and placebo (HDRS-21) ([2]; 50% nitrous oxide, week 2): −7.00 points
- Difference vs placebo (HDRS-21) ([2]; 50% nitrous oxide): −7.00 HDRS-21 units
- Effect size d, 50% vs placebo (HDRS-21) ([2]; 50% nitrous oxide, 2 hours): 0.29
- Effect size d, 50% vs placebo (HDRS-21) ([2]; 50% nitrous oxide, 24 hours): 0.32
- Effect size d, 50% vs placebo (HDRS-21) ([2]; 50% nitrous oxide, week 1): 0.35
- Effect size d, 50% vs placebo (HDRS-21) ([2]; 50% nitrous oxide, week 2): 0.85
- Estimated difference between 50% and 25% (HDRS-21) ([2]; 2 hours): 0.11 points
- Estimated difference between 50% and 25% (HDRS-21) ([2]; 24 hours): 0.42 points
- Estimated difference between 50% and 25% (HDRS-21) ([2]; week 1): 1.91 points
- Estimated difference between 50% and 25% (HDRS-21) ([2]; week 2): −1.67 points
- Patients in remission (HDRS ≤7 points) ([2]; after 25% nitrous oxide, 2/9 patients): 22.2%
- Patients with treatment response (reduction in HDRS-21 points ≥50%) ([2]; after 25% nitrous oxide, 3/9 patients): 33.3%
- Patients in remission (HDRS ≤7 points) [2, 3]: 41.7%
- Patients with treatment response (reduction in HDRS-21 points ≥50%) [2, 3]: 41.7%
- Estimated difference between placebo and the combined 25% and 50% groups (HDRS-21) ([2]; 2 hours): −0.81 points
- Estimated difference between placebo and the combined 25% and 50% groups (HDRS-21) ([2]; 24 hours): −1.67 points
- Estimated difference between placebo and the combined 25% and 50% groups (HDRS-21) ([2]; week 1): −3.35 points
- Estimated difference between placebo and the combined 25% and 50% groups (HDRS-21) ([2]; week 2): −6.13 points
- Median HDRS-21 score at study completion ([2]; entire 3-month course (25%, 50% nitrous oxide and placebo sessions), completers n=20, baseline median 20.5): 8.5 (IQR 2.0-16.0)
- Median change in HDRS-21 from baseline to study completion ([2]; entire 3-month course (25%, 50% nitrous oxide and placebo sessions), n=20, IQR −3.3 to −14.0): −11.0 points
- Patients in remission at study completion (HRDS≤7 points) ([2]; entire 3-month course, n=20, 8/20): 40%
- Patients with treatment response at study completion (reduction in HRDS-21 points ≥50%) ([2]; entire 3-month course, n=20, 11/20): 55%
- Patients with improvement in depressive symptoms by at least one category at study completion ([2]; entire 3-month course, n=20, 17/20): 85%
- Median reduction of HDRS-21 ([2]; entire 3-month treatment regimen with 2 treatments with nitrous oxide): 11 HDRS-21 points
- Dose-response relation (HDRS-21 decrease) ([2]; week 2): −3.51 per 25% increase in dose
